According to PubChem BioAssay (NCI):
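Here, GI50 denotes the concentration required for 50% inhibition of growth. The concentration for full growth arrest is given as TGI.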

How the values were obtained:
Experiment in all cases: growth of human tumour cells (NCI), 384-well format
[1] = test system: K-562 leukemia
[2] = test system: SR leukemia
[3] = test system: HL-60(TB) leukemia
[4] = test system: HOP-92 NSCLC
[5] = test system: SK-OV-3 ovarian
[6] = test system: SK-MEL-5 melanoma
[7] = test system: HCT-116 colon
[8] = test system: NCI-H23 lung
[9] = test system: A549 NSCLC
[10] = test system: DU-145 prostate
[11] = test system: LOX IMVI melanoma
[12] = test system: HCT-15 colon
[13] = test system: SK-MEL-28 melanoma
[14] = test system: SK-MEL-2 melanoma
[15] = test system: HT29 colon
[16] = test system: UACC-257 melanoma
[17] = test system: OVCAR-8 ovarian
[18] = test system: OVCAR-5 ovarian
[19] = test system: RPMI-8226 leukemia
[20] = test system: T-47D breast
[21] = test system: SW-620 colon
[22] = test system: NCI/ADR-RES ovarian
[23] = test system: HOP-62 NSCLC
[24] = test system: SNB-19 CNS
[25] = test system: HCC-2998 colon
[26] = test system: NCI-H460 NSCLC
[27] = test system: IGROV1 ovarian
[28] = test system: CCRF-CEM leukemia
[29] = test system: MDA-MB-435 melanoma
[30] = test system: BT-549 breast
[31] = test system: SF-295 CNS
[32] = test system: RXF 393 renal
[33] = test system: MALME-3M melanoma
[34] = test system: SF-539 CNS
[35] = test system: U251 glioblastoma
[36] = test system: UACC-62 melanoma
[37] = test system: SF-268 CNS
[38] = test system: A498 renal
[39] = test system: CAKI-1 renal
[40] = test system: UO-31 renal
[41] = test system: ACHN renal
[42] = test system: MCF7 breast
[43] = test system: PC-3 prostate
[44] = test system: M14 melanoma
[45] = test system: TK-10 renal
[46] = test system: COLO 205 colon
[47] = test system: MDA-MB-468 breast
[48] = test system: MOLT-4 leukemia
[49] = test system: SN12C renal
[50] = test system: OVCAR-3 ovarian
[51] = test system: NCI-H226 lung
[52] = test system: OVCAR-4 ovarian
[53] = test system: MDA-MB-231 breast
[54] = test system: NCI-H522 lung
[55] = test system: NCI-H322M lung
[56] = test system: 786-0 renal
[57] = test system: KM12 colon

Compound `Cc1c(C)n(CCCN2CCN(C)CC2)c2ccc(Oc3cccc(C(=O)N4CCN(CCc5ccc(F)cc5)CC4)c3)cc12` has a GI50 [1] of 1430 nM, a TGI [1] of 2760 nM and a GI50 [2] of 1460 nM. The TGI [2] was 2790 nM, the GI50 [3] was 2030 nM and the TGI [3] was 3460 nM. The GI50 [4] was 1430 nM, the TGI [4] was 2740 nM and the GI50 [5] was 1520 nM. For the same compound, the TGI [5] was 2860 nM, the GI50 [6] was 1280 nM and the TGI [6] was 2550 nM. It also gave a GI50 [7] of 1470 nM, a TGI [7] of 2800 nM and a GI50 [8] of 1500 nM. For the same compound, the TGI [8] was 2830 nM, the GI50 [9] was 1600 nM and the TGI [9] was 2980 nM. It also gave a GI50 [10] of 1730 nM, a TGI [10] of 3130 nM and a GI50 [11] of 2090 nM. The TGI [11] was 3540 nM, the GI50 [12] was 1430 nM and the TGI [12] was 2750 nM. The GI50 [13] was 1680 nM, the TGI [13] was 3060 nM and the GI50 [14] was 1760 nM. It also gave a TGI [14] of 3140 nM, a GI50 [15] of 1450 nM and a TGI [15] of 2800 nM. It also gave a GI50 [16] of 889 nM, a TGI [16] of 2100 nM and a GI50 [17] of 1620 nM. The TGI [17] was 3000 nM, the GI50 [18] was 1660 nM and the TGI [18] was 3030 nM. It also gave a GI50 [19] of 1300 nM, a TGI [19] of 2560 nM and a GI50 [20] of 1490 nM. For the same compound, the TGI [20] was 2820 nM, the GI50 [21] was 1770 nM and the TGI [21] was 3190 nM. The GI50 [22] was 1570 nM, the TGI [22] was 2920 nM and the GI50 [23] was 1630 nM. The TGI [23] was 3000 nM, the GI50 [24] was 1710 nM and the TGI [24] was 3100 nM. For the same compound, the GI50 [25] was 1430 nM, the TGI [25] was 2740 nM and the GI50 [26] was 1850 nM. The TGI [26] was 3320 nM, the GI50 [27] was 1580 nM and the TGI [27] was 2940 nM. The GI50 [28] was 1630 nM, the TGI [28] was 2990 nM and the GI50 [29] was 1720 nM. It also gave a TGI [29] of 3110 nM, a GI50 [30] of 1320 nM and a TGI [30] of 2600 nM. For the same compound, the GI50 [31] was 1800 nM, the TGI [31] was 3200 nM and the GI50 [32] was 1420 nM. The TGI [32] was 2730 nM, the GI50 [33] was 1410 nM and the TGI [33] was 2710 nM. The GI50 [34] was 1610 nM, the TGI [34] was 2980 nM and the GI50 [35] was 1700 nM. The TGI [35] was 3100 nM, the GI50 [36] was 1780 nM and the TGI [36] was 3170 nM. It also gave a GI50 [37] of 1780 nM, a TGI [37] of 3180 nM and a GI50 [38] of 1520 nM. The TGI [38] was 2860 nM, the GI50 [39] was 1510 nM and the TGI [39] was 2850 nM. For the same compound, the GI50 [40] was 1610 nM, the TGI [40] was 2970 nM and the GI50 [41] was 1610 nM. It also gave a TGI [41] of 2980 nM, a GI50 [42] of 1720 nM and a TGI [42] of 3110 nM. It also gave a GI50 [43] of 1650 nM, a TGI [43] of 3020 nM and a GI50 [44] of 1600 nM. It also gave a TGI [44] of 2960 nM, a GI50 [45] of 1590 nM and a TGI [45] of 2940 nM. It also gave a GI50 [46] of 1680 nM, a TGI [46] of 3070 nM and a GI50 [47] of 1390 nM. For the same compound, the TGI [47] was 2690 nM, the GI50 [48] was 1810 nM and the TGI [48] was 3200 nM. For the same compound, the GI50 [49] was 1630 nM, the TGI [49] was 2990 nM and the GI50 [50] was 1610 nM. For the same compound, the TGI [50] was 2970 nM, the GI50 [51] was 1590 nM and the TGI [51] was 2940 nM. For the same compound, the GI50 [52] was 1750 nM, the TGI [52] was 3130 nM and the GI50 [53] was 1910 nM. It also gave a TGI [53] of 3320 nM, a GI50 [54] of 1680 nM and a TGI [54] of 3050 nM. The GI50 [55] was 1640 nM, the TGI [55] was 3010 nM and the GI50 [56] was 1520 nM. The TGI [56] was 2870 nM, the GI50 [57] was 1720 nM and the TGI [57] was 3120 nM.
Work on `COc1cc2c(cc1OC(C)C)[C@H](c1ccc(Cl)cc1)N(c1ccc(N(C)CC3CCC(N4CCN(C)C(=O)C4)CC3)cc1)C(=O)C2` (stereo partly drawn) yielded a GI50 [1] of 1760 nM, a TGI [1] of 3170 nM and a GI50 [2] of 29.1 nM. The TGI [2] was 101 nM, the GI50 [3] was 1960 nM and the TGI [3] was 3380 nM. The GI50 [4] was 1590 nM, the TGI [4] was 2960 nM and the GI50 [5] was 1580 nM. For the same compound, the TGI [5] was 2940 nM, the GI50 [6] was 1300 nM and the TGI [6] was 2580 nM. It also gave a GI50 [7] of 349 nM, a TGI [7] of 1490 nM and a GI50 [8] of 1930 nM. The TGI [8] was 4370 nM, the GI50 [9] was 387 nM and the TGI [9] was 1550 nM. For the same compound, the GI50 [10] was 1920 nM, the TGI [10] was 3510 nM and the GI50 [11] was 946 nM. For the same compound, the TGI [11] was 2130 nM, the GI50 [12] was 1820 nM and the TGI [12] was 3260 nM. For the same compound, the GI50 [13] was 1790 nM, the TGI [13] was 3190 nM and the GI50 [14] was 1810 nM. The TGI [14] was 3210 nM, the GI50 [15] was 1790 nM and the TGI [15] was 3220 nM. It also gave a GI50 [16] of 1350 nM, a TGI [16] of 2640 nM and a GI50 [17] of 1820 nM. It also gave a TGI [17] of 3250 nM, a GI50 [18] of 1850 nM and a TGI [18] of 3310 nM. It also gave a GI50 [19] of 1530 nM, a TGI [19] of 2880 nM and a GI50 [20] of 1760 nM. For the same compound, the TGI [20] was 3230 nM, the GI50 [21] was 1910 nM and the TGI [21] was 3360 nM. The GI50 [22] was 1770 nM, the TGI [22] was 3220 nM and the GI50 [23] was 2070 nM. For the same compound, the TGI [23] was 3520 nM, the GI50 [24] was 1940 nM and the TGI [24] was 3490 nM. It also gave a GI50 [25] of 1730 nM, a TGI [25] of 3120 nM and a GI50 [26] of 316 nM. The TGI [26] was 1420 nM, the GI50 [27] was 1370 nM and the TGI [27] was 2700 nM. It also gave a GI50 [28] of 1940 nM, a TGI [28] of 3360 nM and a GI50 [29] of 2010 nM. For the same compound, the TGI [29] was 3460 nM, the GI50 [30] was 1580 nM and the TGI [30] was 2940 nM. The GI50 [31] was 1620 nM, the TGI [31] was 2990 nM and the GI50 [32] was 1690 nM. It also gave a TGI [32] of 3070 nM, a GI50 [33] of 1180 nM and a TGI [33] of 2430 nM. For the same compound, the GI50 [34] was 1740 nM, the TGI [34] was 3140 nM and the GI50 [35] was 1750 nM. The TGI [35] was 3160 nM, the GI50 [36] was 92.4 nM and the TGI [36] was 1580 nM. It also gave a GI50 [37] of 1900 nM, a TGI [37] of 3340 nM and a GI50 [38] of 240 nM. It also gave a TGI [38] of 1320 nM, a GI50 [39] of 146 nM and a TGI [39] of 1180 nM. It also gave a GI50 [40] of 288 nM, a TGI [40] of 1310 nM and a GI50 [41] of 243 nM. It also gave a TGI [41] of 1280 nM, a GI50 [42] of 378 nM and a TGI [42] of 1570 nM. For the same compound, the GI50 [43] was 1790 nM, the TGI [43] was 3190 nM and the GI50 [44] was 943 nM. It also gave a TGI [44] of 2160 nM, a GI50 [45] of 1820 nM and a TGI [45] of 3310 nM. For the same compound, the GI50 [46] was 1860 nM, the TGI [46] was 3290 nM and the GI50 [47] was 2030 nM. The TGI [47] was 3470 nM, the GI50 [48] was 37.8 nM and the TGI [48] was 138 nM. For the same compound, the GI50 [49] was 1810 nM, the TGI [49] was 3220 nM and the GI50 [50] was 1690 nM. It also gave a TGI [50] of 3080 nM, a GI50 [51] of 134 nM and a TGI [51] of 374 nM. For the same compound, the GI50 [52] was 1760 nM, the TGI [52] was 3180 nM and the GI50 [53] was 1800 nM. For the same compound, the TGI [53] was 3200 nM, the GI50 [54] was 1860 nM and the TGI [54] was 3330 nM. For the same compound, the GI50 [55] was 1710 nM, the TGI [55] was 3270 nM and the GI50 [56] was 1720 nM. It also gave a TGI [56] of 3120 nM, a GI50 [57] of 1900 nM and a TGI [57] of 3350 nM.
